Patent publication US20240132525A1, “BORON […], CO[…], METHODS AND USES THEREOF” (priority 2022, published 2024)
Like-named read-outs stand apart in the source and are kept apart here.

Assays:
IL-4/pSTAT6 = assay: Cytokine function assay IL-4/pSTAT6 in PBMC; type: cell-based
Experimental: Cytokine Function Assay Protocols for IL-4/pSTAT6 and GM-CSF/pSTAT5
IL-4/pSTAT6: • PBMC from a healthy donor was plated onto a 96 w plate. Compound was added and incubated for 1 hour (at 37° C.). After 1 hour, cells were stimulated with IL-4 for 15 minutes. Cells were fixed and stained with anti-pSTAT6 antibody. After staining, cells were read on a Beckman-Coulter CytoFLEX.

JAK2 = JAK2 (Homo sapiens (Human), UniProt O60674); assay: Biochemical kinase assay (33P-ATP filter-binding), JAK2
Chain of JAK2 (O60674 whole entry, species assumed): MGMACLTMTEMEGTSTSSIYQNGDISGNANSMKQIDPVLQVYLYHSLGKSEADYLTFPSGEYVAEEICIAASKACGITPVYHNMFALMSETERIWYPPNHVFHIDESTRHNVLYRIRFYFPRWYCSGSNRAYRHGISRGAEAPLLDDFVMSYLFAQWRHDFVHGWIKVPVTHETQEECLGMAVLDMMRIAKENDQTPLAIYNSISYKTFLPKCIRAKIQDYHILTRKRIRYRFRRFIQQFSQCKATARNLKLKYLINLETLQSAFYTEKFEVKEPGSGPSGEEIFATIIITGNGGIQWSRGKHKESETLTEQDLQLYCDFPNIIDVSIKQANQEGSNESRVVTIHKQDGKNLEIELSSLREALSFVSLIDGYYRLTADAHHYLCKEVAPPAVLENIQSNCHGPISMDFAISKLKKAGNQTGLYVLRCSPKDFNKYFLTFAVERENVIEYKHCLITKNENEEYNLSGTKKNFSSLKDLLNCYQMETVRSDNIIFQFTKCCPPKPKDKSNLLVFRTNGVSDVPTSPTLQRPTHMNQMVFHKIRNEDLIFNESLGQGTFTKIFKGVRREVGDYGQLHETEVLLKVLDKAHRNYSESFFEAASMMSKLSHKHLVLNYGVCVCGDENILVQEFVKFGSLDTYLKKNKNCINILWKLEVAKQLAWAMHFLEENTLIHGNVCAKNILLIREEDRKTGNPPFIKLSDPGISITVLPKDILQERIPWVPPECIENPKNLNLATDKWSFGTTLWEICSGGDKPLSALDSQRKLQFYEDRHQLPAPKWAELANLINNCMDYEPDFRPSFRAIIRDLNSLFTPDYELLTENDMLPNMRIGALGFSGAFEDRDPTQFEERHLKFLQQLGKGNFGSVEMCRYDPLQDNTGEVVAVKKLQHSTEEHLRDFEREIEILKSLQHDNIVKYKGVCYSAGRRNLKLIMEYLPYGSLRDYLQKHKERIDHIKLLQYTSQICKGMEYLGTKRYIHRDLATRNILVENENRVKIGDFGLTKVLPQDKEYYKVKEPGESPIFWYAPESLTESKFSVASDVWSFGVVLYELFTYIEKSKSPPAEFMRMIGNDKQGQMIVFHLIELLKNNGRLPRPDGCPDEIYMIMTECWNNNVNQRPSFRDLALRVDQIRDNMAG
From the text: (§1) Biochemical Kinase Assay Protocol (JAK)
(§2) Reaction Procedure: • 1. […] Detected kinase activity by filter-binding method.

JAK1 = JAK1 (Homo sapiens (Human), UniProt P23458); assay: Biochemical kinase assay (33P-ATP filter-binding), JAK1
Chain of JAK1 (P23458 whole entry, species assumed): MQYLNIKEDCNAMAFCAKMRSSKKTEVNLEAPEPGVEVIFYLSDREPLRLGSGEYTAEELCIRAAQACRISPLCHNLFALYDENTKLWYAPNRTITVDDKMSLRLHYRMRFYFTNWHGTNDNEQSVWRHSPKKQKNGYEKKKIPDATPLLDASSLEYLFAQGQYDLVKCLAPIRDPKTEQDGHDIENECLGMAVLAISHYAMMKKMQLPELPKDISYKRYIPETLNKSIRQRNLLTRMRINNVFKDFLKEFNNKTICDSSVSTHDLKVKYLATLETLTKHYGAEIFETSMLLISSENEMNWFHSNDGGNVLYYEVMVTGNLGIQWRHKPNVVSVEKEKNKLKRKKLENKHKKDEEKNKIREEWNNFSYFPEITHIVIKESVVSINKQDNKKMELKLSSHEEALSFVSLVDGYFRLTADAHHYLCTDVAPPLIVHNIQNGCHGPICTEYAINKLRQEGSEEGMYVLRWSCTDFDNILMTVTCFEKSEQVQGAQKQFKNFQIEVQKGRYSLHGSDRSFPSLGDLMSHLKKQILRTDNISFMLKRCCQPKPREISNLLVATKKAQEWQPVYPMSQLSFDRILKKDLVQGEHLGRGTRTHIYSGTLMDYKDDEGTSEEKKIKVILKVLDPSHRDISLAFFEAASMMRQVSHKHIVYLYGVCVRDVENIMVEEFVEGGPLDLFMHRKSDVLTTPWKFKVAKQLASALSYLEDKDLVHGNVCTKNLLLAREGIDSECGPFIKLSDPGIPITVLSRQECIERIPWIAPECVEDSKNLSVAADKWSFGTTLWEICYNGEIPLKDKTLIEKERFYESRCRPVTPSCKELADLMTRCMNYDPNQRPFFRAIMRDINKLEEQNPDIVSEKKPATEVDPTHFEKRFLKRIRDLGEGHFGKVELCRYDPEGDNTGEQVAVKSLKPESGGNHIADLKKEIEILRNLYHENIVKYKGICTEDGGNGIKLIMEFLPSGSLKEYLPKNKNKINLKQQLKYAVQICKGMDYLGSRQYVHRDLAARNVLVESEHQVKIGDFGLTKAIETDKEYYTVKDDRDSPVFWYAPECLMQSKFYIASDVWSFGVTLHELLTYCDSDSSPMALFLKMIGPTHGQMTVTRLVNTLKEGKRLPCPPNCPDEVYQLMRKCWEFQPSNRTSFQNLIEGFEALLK
From the text: as §1, §2

[1] = Dog LM (liver microsome) assay; type: in vitro ADME; conditions: Table 3a; predicted clearance as percent of liver blood flow, 1 μM, 1 mg/ml microsomal protein
Experimental: Dog LM (Liver Microsome) Assay
The metabolic degradation of the test compound is assayed at 37° C. with pooled liver microsomes from dogs (Beagle). The final incubation volume of 100 μl per time point contains TRIS buffer pH 7.6 at RT (0.1 M), magnesium chloride (5 mM), microsomal protein (1 mg/ml) and the test compound at a final concentration of 1 μM. Following a short preincubation period at 37° C., the reactions were initiated by addition of beta-nicotinamide adenine dinucleotide phosphate, reduced form (NADPH, 1 mM) and terminated by transferring an aliquot into solvent after different time points. Additionally, the NADPH-independent degradation was monitored in incubations without NADPH, terminated at the last time point. The [%] remaining test compound after NADPH independent incubation is reflected by the parameter c (control) (metabolic stability). The quenched incubations are pelleted by centrifugation (10000 g, 5 min). An aliquot of the supernatant is assayed by LC-MS/MS for the amount of parent compound. The half-life (t½ INVITRO) is determined by the slope of the semilogarithmic plot of the concentration-time profile. The intrinsic clearance (CL_[…]) is calculated by considering the amount of protein in the incubation: CL_[…] [μl/min/mg protein]=(Ln 2/(half-life [min]*protein content [mg/ml]))*1000. For better across species comparison the predicted clearance is expressed as percent of the liver blood flow [% QH] in the individual species. In general, high stability (corresponding to low % QH) of the compounds across species is desired.

[2] = PBMC, read-out: IC50 IL-4, Table 3a

| SMILES | IC50 (IL-4/pSTAT6; [2]) [nM] | IC50 (JAK2; Table 3a, read-out: IC50 JAK2) [nM] | IC50 (JAK1; Table 3a, read-out: IC50 JAK1) [nM] | Dog LM QH [1] [%] | IC50 (IL-4/pSTAT6; read-out: IC50 IL-4, Table 3a) [nM] | IC50 (JAK2; IC50 JAK2, Table 3a) [nM] | IC50 (JAK1; IC50 JAK1, Table 3a) [nM] |
| --- | --- | --- | --- | --- | --- | --- | --- |
| Cc1cnc(Nc2cc3c(c(C(F)(F)F)c2)B(O)OC3)nc1N[C@@H]1CCC[C@H]1C#N (relative stereo) [Example 006, (trans)2-[[2-[[1-hydroxy-7-(trifluoromethyl)-3H-2,1-benzoxaborol-5-yl]amino]-5-methyl-pyrimidin-4-yl]amino]cyclopentanecarbonitrile] | 202 | 36.6 | 1 | <19.9 | – | – | – |
| Cc1cnc(Nc2ccc3c(c2)OB(O)C=C3)nc1N[C@@H]1COCC[C@H]1C#N (relative stereo) [Example 034, (trans)-3-[[2-[(2-hydroxy-1,2-benzoxaborinin-7-yl)amino]-5-methyl-pyrimidin-4-yl]amino]tetrahydropyran-4-carbonitrile] | – | 33.7 | 1.1 | 74.7 | – | – | – |
| Cc1cnc(Nc2cc3c(c(C(F)(F)F)c2)OB(O)C=C3)nc1N[C@@H]1COCC[C@H]1C#N (relative stereo) [Example 037, (trans)-3-[[2-[[2-hydroxy-8-(trifluoromethyl)-1,2-benzoxaborinin-6-yl]amino]-5-methyl-pyrimidin-4-yl]amino]tetrahydropyran-4-carbonitrile] | 919 | 18.5 | 3.1 | 19.9 | – | – | – |
| Cc1cnc(Nc2cc(Cl)c3c(c2)COB3O)nc1N[C@@H]1CCC[C@H]1C#N (single isomer, unassigned) [Example 003b, (trans)-2-((2-((7-chloro-1-hydroxy-1,3-dihydrobenzo[c][1,2]oxaborol-5-yl)amino)-5-methylpyrimidin-4-yl)amino)cyclopentane-1-carbonitrile] | – | 83.1 | 5 | <19.9 | 74.8 | – | – |
| Cc1cnc(Nc2cc3c(c(C(F)(F)F)c2)B(O)OC3)nc1N[C@H]1CCCC[C@@H]1C#N (single isomer, unassigned) [Example 011b, (trans)-2-((2-((1-hydroxy-7-(trifluoromethyl)-1,3-dihydrobenzo[c][1,2]oxaborol-5-yl)amino)-5-methylpyrimidin-4-yl)amino)cyclohexane-1-carbonitrile] | – | 197 | 10 | <19.9 | – | – | – |
| Cc1cnc(Nc2cc(C#N)c3c(c2)COB3O)nc1N[C@H]1CCCC[C@@H]1C#N (single isomer, unassigned) [Example 012a, 5-((4-(((trans)-2-cyanocyclohexyl)amino)-5-methylpyrimidin-2-yl)amino)-1-hydroxy-1,3-dihydrobenzo[c][1,2]oxaborole-7-carbonitrile] | – | 2.4 | 0.6 | <19.9 | – | – | – |
| Cc1cnc(Nc2cc(C#N)c3c(c2)COB3O)nc1N[C@H]1CCCC[C@@H]1C#N (single isomer, unassigned) [Example 012b, 5-((4-(((trans)-2-cyanocyclohexyl)amino)-5-methylpyrimidin-2-yl)amino)-1-hydroxy-1,3-dihydrobenzo[c][1,2]oxaborole-7-carbonitrile] | – | 126 | 8.2 | <19.9 | – | – | – |
| Cc1cnc(Nc2ccc3c(c2)COB3O)nc1N[C@@H]1COCC[C@H]1C#N (single isomer, unassigned) [Example 026b, (trans)-3-((2-((1-hydroxy-1,3-dihydrobenzo[c][1,2]oxaborol-5-yl)amino)-5-methylpyrimidin-4-yl)amino)tetrahydro-2H-pyran-4-carbonitrile] | – | 95.3 | 47.1 | <19.9 | – | – | – |
| Cc1cnc(Nc2cc(F)c3c(c2)COB3O)nc1N[C@@H]1COCC[C@H]1C#N (single isomer, unassigned) [Example 029b, (trans)-3-[[2-[(7-fluoro-1-hydroxy-3H-2,1-benzoxaborol-5-yl)amino]-5-methyl-pyrimidin-4-yl]amino]tetrahydropyran-4-carbonitrile] | – | 89.8 | 4 | <19.9 | – | – | – |
| Cc1cnc(Nc2cc3c(c(C(F)(F)F)c2)B(O)OC3)nc1N[C@@H]1COCC[C@H]1C#N (single isomer, unassigned) [Example 033b, (trans)-3-[[2-[[1-hydroxy-7-(trifluoromethyl)-3H-2,1-benzoxaborol-5-yl]amino]-5-methyl-pyrimidin-4-yl]amino]tetrahydropyran-4-carbonitrile] | – | 389 | 16.3 | 64.9 | – | – | – |
| Cc1cnc(Nc2cc(F)c3c(c2)C=CB(O)O3)nc1N[C@@H]1COCC[C@H]1C#N (single isomer, unassigned) [Example 036b, (trans)-3-((2-((8-fluoro-2-hydroxy-2H-benzo[e][1,2]oxaborinin-6-yl)amino)-5-methylpyrimidin-4-yl)amino)tetrahydro-2H-pyran-4-carbonitrile] | – | 102 | 8.2 | 37.3 | – | – | – |
| Cc1cnc(Nc2ccc3c(c2)C(C(C)C)=CB(O)O3)nc1N[C@H]1COCC[C@@H]1C#N (single isomer, unassigned) [Example 039b, (trans)-3-((2-((2-hydroxy-4-isopropyl-2H-benzo[e][1,2]oxaborinin-6-yl)amino)-5-methylpyrimidin-4-yl)amino)tetrahydro-2H-pyran-4-carbonitrile] | – | 2040 | 216 | 72.1 | – | – | – |
| Cc1cnc(Nc2cc(Cl)c3c(c2)C(C(C)C)=CB(O)O3)nc1N[C@H]1COCC[C@@H]1C#N (single isomer, unassigned) [Example 040a, (trans)-3-((2-((8-chloro-2-hydroxy-4-isopropyl-2H-benzo[e][1,2]oxaborinin-6-yl)amino)-5-methylpyrimidin-4-yl)amino)tetrahydro-2H-pyran-4-carbonitrile] | – | > 1000 | > 1000 | 32.9 | – | – | – |
| Cc1cc(Nc2ncc(Cl)c(N[C@H]3COCC[C@@H]3C#N)n2)cc2c1B(O)OC2 (single isomer, unassigned) [Example 041b, (trans)-3-[[5-chloro-2-[(1-hydroxy-7-methyl-3H-2,1-benzoxaborol-5-yl)amino]pyrimidin-4-yl]amino]tetrahydropyran-4-carbonitrile] | – | – | – | <19.9 | – | 134 | 36.2 |
| N#C[C@H]1CCOC[C@@H]1Nc1nc(Nc2cc3c(c(C(F)(F)F)c2)B(O)OC3)ncc1Cl (single isomer, unassigned) [Example 042b, (trans)-3-((5-chloro-2-((1-hydroxy-7-(trifluoromethyl)-1,3-dihydrobenzo[c][1,2]oxaborol-5-yl)amino)pyrimidin-4-yl)amino)tetrahydro-2H-pyran-4-carbonitrile] | – | 690 | 98.2 | <19.9 | – | – | – |
| Cc1cnc(Nc2cc3c(c(C(F)(F)F)c2)B(O)OC3)nc1N[C@H]1COC[C@@H]1C#N (single isomer, unassigned) [Example 043b, (trans)-4-[[2-[[1-hydroxy-7-(trifluoromethyl)-3H-2,1-benzoxaborol-5-yl]amino]-5-methyl-pyrimidin-4-yl]amino]tetrahydrofuran-3-carbonitrile] | – | 298 | 7.6 | <19.9 | – | – | – |
| COc1cc(Nc2ncc(C)c(N[C@H]3COCC[C@@H]3C#N)n2)cc2c1B(O)OC2 (single isomer, unassigned) [Example 044a, (trans)-3-((2-((1-hydroxy-7-methoxy-1,3-dihydrobenzo[c][1,2]oxaborol-5-yl)amino)-5-methylpyrimidin-4-yl)amino)tetrahydro-2H-pyran-4-carbonitrile] | – | 0.8 | 0.2 | 34.9 | – | – | – |
| COc1cc(Nc2ncc(C)c(N[C@H]3COCC[C@@H]3C#N)n2)cc2c1B(O)OC2 (single isomer, unassigned) [Example 044b, (trans)-3-((2-((1-hydroxy-7-methoxy-1,3-dihydrobenzo[c][1,2]oxaborol-5-yl)amino)-5-methylpyrimidin-4-yl)amino)tetrahydro-2H-pyran-4-carbonitrile] | – | 96.8 | 33.8 | <19.9 | – | – | – |
| Cc1cnc(Nc2cc(Cl)c3c(c2)COB3O)nc1N[C@@H]1CCCOC1 [Example 030a] | – | 868 | 51.1 | <19.9 | – | – | – |
| CC1=Cc2cc(Nc3ncc(C)c(NC4COCCC4C#N)n3)ccc2OB1O (stereo not drawn) [Example 038, 3-[[2-[(2-hydroxy-3-methyl-1,2-benzoxaborinin-6-yl)amino]-5-methyl-pyrimidin-4-yl]amino]tetrahydropyran-4-carbonitrile] | – | 23.7 | 1.4 | 50.4 | – | – | – |
